Reference: paper PMC8156151 (The European Respiratory Journal, 2021)
Like-named read-outs stand apart in the source and are kept apart here.

Assays:
Format in all cases: in vivo, human
[1] = test system: healthy subjects; experiment: Safety and tolerability (TEAEs), part 1, single inhaled dose
Method: (§1) Subjects were discharged 24 h post-dose (day 2) provided there were no safety concerns, and returned for three outpatient visits on days 3, 8 and 14 post-dose, with a post-study follow-up between days 26 and 30. Safety and PK assessments were made at predetermined time-points.
Following completion of dosing for the final subject in each dosing cohort, an interim dose review meeting was held with a safety committee consisting of the principal investigator, medical monitor, pharmacokineticist and statistician to review the safety, tolerability and PK data (study design schematic shown in figure 1). The study statistician and pharmacokineticist were unblinded at the end of each cohort in order to conduct the analyses required for dose review decisions. The primary end-point was the safety and tolerability of single or multiple doses of TD139 in healthy subjects or IPF patients, respectively.

[2] = Plasma pharmacokinetics, part 1 (healthy subjects)
Method: as §1
Full plasma PK profiles were conducted on days 1 (first day of dosing) and 14 (last day of dosing). […] Standard noncompartmental methods were applied to derive PK parameters using Phoenix WinNonlin version 6.3 (Certara, Sheffield, UK). […] Drug compartment measurements in BAL alveolar macrophages and fluid were determined as described previously.

[3] = test system: MMP-8; experiment: Plasma biomarker MMP-8; details: for MMP-8 raw data, Mean (SD) / MMP-8 least square means % baseline±SEM: IPF patients
Method: (§2) All patients, investigators, sites and study sponsor personnel were blinded to the study group assignments throughout the study. Patients underwent study-specific assessments on days 2, 3, 7, 14 and 15, and a post-study assessment was carried out 26–30 days after the last day of the study period. Assessments included vital signs (supine blood pressure, pulse, oxygen saturation, oral temperature and respiratory rate), spirometry, 12-lead ECG, physical examination, laboratory safety screen (haematology, biochemistry, urinalysis and urinary drugs of abuse screen) and blood sampling for PK measurements. All adverse events and concomitant medications were recorded from the time of the screening visit until the post-study follow-up visit. BAL was performed at day −1 (24 h before the first dose) and at day 14 (2 h after the last dose). The BAL procedure was performed as per international guidelines. Briefly, 240 mL of 0.9% saline at room temperature was instilled in 40 mL aliquots into the right middle lobe and aspirated by suction after each aliquot.
(§3) BAL cells were separated from fluid by centrifugation, and cells were collected, stained with antibodies (supplementary material) and then fixed before analysis using a LSR Fortessa flow cytometer (Becton Dickinson, Franklin Lakes, NJ, USA). Data were analysed using FlowJo software (Tree Star, Ashland, OR, USA). Macrophages were identified as having high side scatter properties and human leukocyte antigen-DR positivity. Gal-3 expression (mean fluorescence intensity) was determined from the macrophage gate (supplementary figures S1 and S2). […] Samples were analysed by magnetic Luminex assay (R&D Systems, Minneapolis, MN, USA) or ELISA.
(§4) For part 2 of the study, placebos were combined from the three dose-specific cohorts into a pooled control group (n=9). For alveolar macrophage Gal-3 expression and the plasma biomarkers, ANCOVA was performed for percentage of baseline ((day 14/day 1)×100). The ANCOVA model included effects for treatment group and baseline (day 1) value. […] An additional analysis including dose as a continuous covariate was also performed. The Pearson correlation coefficient (r) and associated p-value were calculated for percentage of baseline and day 14 values between plasma biomarkers and alveolar macrophage Gal-3 expression. […] The analysis is exploratory and there was no pre-planned adjustment for multiple testing; the study was not powered for this. Alveolar macrophage Gal-3 expression was considered the primary exploratory analysis with the pre-selected biomarkers secondary. A Bonferroni correction for multiple testing of the secondary end-points comparing the 10 mg group with placebo gives a critical value of 0.0063. Data are presented as the difference in least square means with 95% confidence interval and p-value unless otherwise stated. All analyses were performed using SAS version 9.4 (SAS Institute, Cary, NC, USA). […]

[4] = test system: Osteopontin; experiment: Plasma biomarker osteopontin; details: for Osteopontin raw data, Mean (SD) / Osteopontin least square means % baseline±SEM: IPF patients
Method: as §2, §3, §4

[5] = healthy subjects, single inhaled 0.15 mg
[6] = healthy subjects, single inhaled 1.5 mg
[7] = healthy subjects, single inhaled 3 mg
[8] = healthy subjects, single inhaled 10 mg
[9] = healthy subjects, single inhaled 20 mg
[10] = healthy subjects, single inhaled 50 mg
[11] = human, inhaled or intranasal, single inhaled 1.5 mg, mean±SD
[12] = human, inhaled or intranasal, single inhaled 3 mg, mean±SD
[13] = human, inhaled or intranasal, single inhaled 10 mg, mean±SD
[14] = human, inhaled or intranasal, single inhaled 20 mg, mean±SD
[15] = human, inhaled or intranasal, single inhaled 50 mg, mean±SD

## OC[C@H]1O[C@@H](S[C@@H]2O[C@H](CO)[C@H](O)[C@H](n3cc(-c4cccc(F)c4)nn3)[C@H]2O)[C@H](O)[C@@H](n2cc(-c3cccc(F)c3)nn2)[C@H]1O [TD139]
[1]; healthy subjects, single doses up to 50 mg
  safety and tolerability: safe and well tolerated
[1]; [5]
  Subjects reporting ≥1 TEAE: Serious TEAE: 0 n (%)
  Subjects reporting ≥1 TEAE: TEAE: 0 n (%)
  Subjects reporting ≥1 TEAE: TEAE leading to withdrawal: 0 n (%)
  Subjects with TEAE by relationship to study IMP: Almost definite: 0 n (%)
  Subjects with TEAE by relationship to study IMP: Possible: 0 n (%)
  Subjects with TEAE by relationship to study IMP: Probable: 0 n (%)
  Subjects with TEAE by relationship to study IMP: Unlikely: 0 n (%)
  Subjects with TEAE by severity: Mild: 0 n (%)
  TEAEs: 0 n
[1]; [6]
  Subjects reporting ≥1 TEAE: Serious TEAE: 0 n (%)
  Subjects reporting ≥1 TEAE: TEAE: 0 n (%)
  Subjects reporting ≥1 TEAE: TEAE leading to withdrawal: 0 n (%)
  Subjects with TEAE by relationship to study IMP: Almost definite: 0 n (%)
  Subjects with TEAE by relationship to study IMP: Possible: 0 n (%)
  Subjects with TEAE by relationship to study IMP: Probable: 0 n (%)
  Subjects with TEAE by relationship to study IMP: Unlikely: 0 n (%)
  Subjects with TEAE by severity: Mild: 0 n (%)
  TEAEs: 0 n
[1]; [7]
  Subjects reporting ≥1 TEAE: Serious TEAE: 0 n (%)
  Subjects reporting ≥1 TEAE: TEAE: 2 (50.0) n (%)
  Subjects reporting ≥1 TEAE: TEAE leading to withdrawal: 0 n (%)
  Subjects with TEAE by relationship to study IMP: Almost definite: 1 (25.0) n (%)
  Subjects with TEAE by relationship to study IMP: Possible: 0 n (%)
  Subjects with TEAE by relationship to study IMP: Probable: 0 n (%)
  Subjects with TEAE by relationship to study IMP: Unlikely: 1 (25.0) n (%)
  Subjects with TEAE by severity: Mild: 2 (50.0) n (%)
  TEAEs: 2 n
[1]; [8]
  Subjects reporting ≥1 TEAE: Serious TEAE: 0 n (%)
  Subjects reporting ≥1 TEAE: TEAE: 3 (75.0) n (%)
  Subjects reporting ≥1 TEAE: TEAE leading to withdrawal: 0 n (%)
  Subjects with TEAE by relationship to study IMP: Almost definite: 3 (75.0) n (%)
  Subjects with TEAE by relationship to study IMP: Possible: 2 (50.0) n (%)
  Subjects with TEAE by relationship to study IMP: Probable: 0 n (%)
  Subjects with TEAE by relationship to study IMP: Unlikely: 0 n (%)
  Subjects with TEAE by severity: Mild: 3 (75.0) n (%)
  TEAEs: 7 n
[1]; [9]
  Subjects reporting ≥1 TEAE: Serious TEAE: 0 n (%)
  Subjects reporting ≥1 TEAE: TEAE: 4 (100.0) n (%)
  Subjects reporting ≥1 TEAE: TEAE leading to withdrawal: 0 n (%)
  Subjects with TEAE by relationship to study IMP: Almost definite: 4 (100.0) n (%)
  Subjects with TEAE by relationship to study IMP: Possible: 1 (25.0) n (%)
  Subjects with TEAE by relationship to study IMP: Probable: 1 (25.0) n (%)
  Subjects with TEAE by relationship to study IMP: Unlikely: 0 n (%)
  Subjects with TEAE by severity: Mild: 4 (100.0) n (%)
  TEAEs: 7 n
[1]; [10]
  Subjects reporting ≥1 TEAE: Serious TEAE: 0 n (%)
  Subjects reporting ≥1 TEAE: TEAE: 4 (100.0) n (%)
  Subjects reporting ≥1 TEAE: TEAE leading to withdrawal: 0 n (%)
  Subjects with TEAE by relationship to study IMP: Almost definite: 4 (100.0) n (%)
  Subjects with TEAE by relationship to study IMP: Possible: 3 (75.0) n (%)
  Subjects with TEAE by relationship to study IMP: Probable: 0 n (%)
  Subjects with TEAE by relationship to study IMP: Unlikely: 0 n (%)
  Subjects with TEAE by severity: Mild: 4 (100.0) n (%)
  TEAEs: 10 n
[1]; part 1, healthy subjects
  biochemistry, haematology, vital signs or 12-lead ECG data: no clinically significant safety findings or treatment- or dose-related changes observed
  incidence of cough: 11.1%
  incidence of mild dysgeusia (most commonly occurring TEAE): 36.1%
[2]; [11]
  AUC(0-inf): 17.9 ± 14 ng·h/mL
  half-life: 1.13 ± 0.63 h
[2]; human, inhaled or intranasal, single inhaled 1.5 mg, mean±SD, read-out: Cmax
  Cmax: 2.37 ± 1.48 ng/mL
[2]; [12]
  AUC(0-inf): 70.8 ± 22.7 ng·h/mL
  half-life: 3 ± 0.82 h
[2]; human, inhaled or intranasal, single inhaled 3 mg, mean±SD, read-out: Cmax
  Cmax: 8.21 ± 2.67 ng/mL
[2]; [13]
  AUC(0-inf): 184 ± 64.5 ng·h/mL
  half-life: 1.19 ± 0.94 h
[2]; human, inhaled or intranasal, single inhaled 10 mg, mean±SD, read-out: Cmax
  Cmax: 22.6 ± 8.69 ng/mL
[2]; [14]
  AUC(0-inf): 544 ± 114 ng·h/mL
  half-life: 1.31 ± 1.8 h
[2]; human, inhaled or intranasal, single inhaled 20 mg, mean±SD, read-out: Cmax
  Cmax: 81.1 ± 27 ng/mL
[2]; [15]
  AUC(0-inf): 1160 ± 532 ng·h/mL
  half-life: 0.81 ± 0.8 h
[2]; human, inhaled or intranasal, single inhaled 50 mg, mean±SD, read-out: Cmax
  Cmax: 126 ± 43.3 ng/mL
[2]; single inhaled 0.15 mg, BLQ: below limit of quantification (0.5 ng·mL^−1)
  Cmax: BLQ
[3]; 10 mg vs placebo, ANCOVA
  MMP-8 difference in least square means % baseline (95% CI): −125.4 (−271.3–20.5) % baseline
[3]; Day 14, 0.3 mg
  MMP-8 raw data, Mean (SD): 1911.5 (1577.82) pg/ml
[3]; Day 14, 3 mg
  MMP-8 raw data, Mean (SD): 2263.3 (2428.78) pg/ml
[3]; Day 14, 10 mg
  MMP-8 raw data, Mean (SD): 44436.7 (97465.67) pg/ml
[3]; day 14, 0.3 mg once daily
  MMP-8 least square means % baseline±SEM: 138.0±52.8 % baseline
[3]; day 14, 3 mg once daily
  MMP-8 least square means % baseline±SEM: 115.2±52.7 % baseline
[3]; day 14, 10 mg once daily
  MMP-8 least square means % baseline±SEM: 51.5±56.1 % baseline
[4]; 10 mg vs placebo, ANCOVA
  Osteopontin difference in least square means % baseline (95% CI): −26.8 (−88.0–34.3) % baseline
[4]; Day 14, 0.3 mg
  Osteopontin raw data, Mean (SD): 37756 (20451.51) pg/ml
[4]; Day 14, 3 mg
  Osteopontin raw data, Mean (SD): 31032.4 (13230.48) pg/ml
[4]; Day 14, 10 mg
  Osteopontin raw data, Mean (SD): 48630.5 (37737.51) pg/ml
[4]; day 14, 0.3 mg once daily
  Osteopontin least square means % baseline±SEM: 106.2±23.9 % baseline
[4]; day 14, 3 mg once daily
  Osteopontin least square means % baseline±SEM: 84±23.7 % baseline
[4]; day 14, 10 mg once daily
  Osteopontin least square means % baseline±SEM: 91.3±23.4 % baseline
